The numbers were not newly measured in patent publication US20050042196A1, “Antimicrobial phenol containing cyanoacrylate compositions” (priority 2003, published 2005), which cites them from elsewhere.

The structures appear in SMILES notation.

For the series the following is noted: aqueous.

By pKa is commonly meant the pH at which an ionisable group is half protonated. As for `[O-][Cl+3]([O-])([O-])O` [perchloric acid], the pKa is given as −5.
